# Laboratory results from article PMC12874371, “Screening of FDA-Approved Small Molecules to Discover Inhibitors of the Pseudomonas aeruginosa Quorum-Sensing Enzyme, PqsE” (Biochemistry, 2026).
# Tests used:
# azeB expression = assay: azeB-luxCDABE reporter (dual pyocyanin/azeB-lux assay); conditions: 50 and 100 μM, azeB-lux reporter strains
# PqsE(WT) = target: T1, PqsE(WT) (Pseudomonas aeruginosa, UniProt P20581); assay: biochemical
# T1 construct: 6xHis (N); made in house; host or cells: E. coli BL21 (DE3), pET28b-6xHis-pqsE(WT) (strain SM776)
# intracellular PqsE = target: T2, intracellular PqsE (Pseudomonas aeruginosa, UniProt P20581); assay type: cell-based; conditions: 8 h growth
# T2 construct: endogenous in cells; host or cells: P. aeruginosa UCBPP-PA14 wild type
# PqsE(S285W) = target: T3, PqsE(S285W) (Pseudomonas aeruginosa, UniProt P20581, S285W); assay: biochemical
# T3 construct: 6xHis (N); made in house; host or cells: E. coli BL21 (DE3), pET28b-6xHis-pqsE(S285W) (strain IT55)
SMILES,Effect on azeB expression (luminescence/OD600) (azeB expression),IC50 (PqsE(WT)) [µM],"Decrease in acetophenone (intracellular PqsE; 10 μM, wildtype P. aeruginosa) [%]","Effect on acetophenone levels at 100 μM (intracellular PqsE; 100 μM, compared to pqsE(D73A) strain)",IC50 (PqsE(S285W)) [µM],Effect on acetophenone levels (intracellular PqsE; 10 and 100 μM)
O=c1n(CCCN2CCN(c3cccc(Cl)c3)CC2)nc2ccccn12 [Trazodone],not accompanied by increases in azeB expression,,,,,
O=C(CCCCCCC(=O)Nc1ccccc1)NO [Vorinostat],not accompanied by increases in azeB expression,1.2,30,full inhibition of PqsE catalytic activity,,
CN1CCc2cccc3c2[C@H]1Cc1ccc(O)c(O)c1-3 [Apomorphine],not accompanied by increases in azeB expression,18,,,22,no significant effect on acetophenone levels
